Values joined by “and” are separate entries in the source; they are usually repeats but may differ in a detail not shown here. Identical values can stand only once. Like-named read-outs stand apart in the source and are kept apart here.
Tests used:
[1] = target: T1, CYPA (Homo sapiens, UniProt P62937); experiment: CYPA binding affinity (Kd1), SPR; settings: steady state, (95% CI)
T1 construct: His6-TEV-AviTag-CYPA (full-length); His6-TEV (N); made in house; host or cells: BL21(DE3) Escherichia coli
Experimental: The binding affinity of compounds for CYPA (Kd1) was assessed by SPR on a Biacore 8K instrument as previously described.

[2] = test system: Capan-1 cells; experiment: Cellular ERK phosphorylation (pERK); type: cell-based; settings: Homo sapiens; Capan-1 (KRAS^G12V PDAC); (95% CI)
[3] = test system: A375 cells; experiment: Cellular ERK phosphorylation (pERK); type: cell-based, human; settings: Homo sapiens, A-375; A375 (BRAF^V600E)
[4] = test system: Capan-1 cells; experiment: Cell proliferation (CTG); type: cell-based; settings: Homo sapiens; Capan-1, CTG; (95% CI)
Experimental: (§1) Alternatively, cells were seeded in round-bottom ultra-low attachment 96-well plates, centrifuged at 1,000 rpm for 10 min to pellet the cells, and incubated overnight or up to 72 h to allow for 3D spheroid formation. […] Cell viability was determined by CellTiter-Glo 2.0 reagent (2D CTG) (Promega, G9243) or 3D CellTiter-Glo reagent (3D CTG) (Promega, G9683) according to the manufacturer’s protocols. Luminescence was detected using a SpectraMax M5 Plate Reader (Molecular Devices) of Perkin Elmer Enspire. Luminescence signal was normalized to vehicle-treated wells (normalized signal (%) = (luminescence (treated)/mean luminescence (vehicle)) × 100%). […] Data were plotted as log [inhibitor (M)], and a four-parameter sigmoidal concentration response model was fitted to the data to calculate EC50. […] Pa16C MEK1 mutant cells were evaluated by live-cell counting using Calcein AM and a SpectraMax i3X multi-mode detection platform (Molecular Devices). Growth percentages were calculated by normalizing the treated cell counts to their respective untreated cell counts.

[5] = test system: A375 cells; experiment: Cell proliferation (CTG); type: cell-based, human; settings: Homo sapiens, A-375; A375, CTG; (95% CI)
Experimental: as §1

[6] = Oral bioavailability in mice (LC-MS/MS of blood); type: in vivo; settings: mouse, whole blood, read-out: Oral Bioavailability m%F
[7] = target: KRAS^G12V (Homo sapiens, UniProt P01116+P62937, G12V); experiment: RAS binding affinity of compound-bound CYPA (Kd2), SPR; parameters: His6-TEV (N); made in house; host or cells: BL21(DE3) Escherichia coli; settings: steady state, (95% CI)
[8] = test system: NCI-H441, HPAC and SW620 CDX models; experiment: CDX models, RMC-7977 versus SHP2 and MEK inhibitors; settings: three KRAS^G12X models; RMC-7977 10 mg kg^−1 once daily, RMC-4550 20 mg kg^−1 every 2 days, cobimetinib 2.5 mg kg^−1 once daily, alone or in combination
Experimental: Data are mean ± s.e.m. of 3–18 mice per group.
Female BALB/c nude mice, NOD SCID and NSG mice 6-8 weeks old from Beijing Vital River/VR Laboratory Animal Co., LTD, Beijing AniKeeper Biotech Co., Ltd., Shanghai Sino-British SIPPR/BK Laboratory Animal Co., LTD and The Jackson Laboratory were used. Animals were housed in polycarbonate cages, in an environmentally monitored, well ventilated room maintained at a constant temperature of 20-26°C and relative humidity of 40-80%. Fluorescent lighting provided illumination approximately 12 hours per day. Each mouse was inoculated at the right flank with tumor cells (2x10^6-1x10^7) in 100-200 µL of media/PBS supplemented with Matrigel (1:1). Treatments were started when the average tumor size reached 100-250 mm^3. […] Mice on studies were weighed and tumor measurements collected twice weekly. Human primary cancer xenograft models were generated using fresh cancer tumor fragments obtained from hospitals with informed consent from the patients in accordance with protocols approved by the Hospital Institutional Ethical Committee (IEC). Tumor fragments were serial-passaged in BABL/c nude mice and then cryopreserved. Cryopreserved tumors were recovered by implantation in BALB/c nude mice and further serial passaged and frozen for study implantation use. Recovered tumor fragments of about 15-30 mm3 in size from each model were implanted into right flanks of Balb/c nude mice. Treatment started when average tumor volume reached 100-250mm^3. For efficacy study, Animals were assigned to study groups using stratified randomization based upon their tumor volumes (n=3-10/group). […] Animals were treated for 28 days (or up to 110 for selected models) or an earlier time if tumor burden reached humane endpoint. Mean ± s.e.m was plotted in the waterfall plots. The dashed line on waterfall plot indicates a 10% reduction in tumor volume from baseline. […] Body weights were collected twice a week during the study. For single-dose pharmacokinetic/pharmacodynamics (PK/PD) study, mice were randomized into treatment groups when mean tumor volume reached 400-600 mm^3.

[9] = test system: Pa16C cells expressing MEK1 mutants; experiment: Proliferation (Calcein AM) of Pa16C cells expressing MEK1 mutants; type: cell-based, human
[10] = test system: AsPC-1 and NCI-H441 cells; experiment: pERK (MSD) and proliferation (CTG) in AsPC-1 and NCI-H441 cells, CYPA inhibitor co-treatment or PPIA KO; type: cell-based, human; settings: for activity at 0.00046 µM: 0.46 nM
[11] = test system: RAS-less MEFs; experiment: Western blots of isogenic RAS-less MEF cells expressing KRAS variants or BRAF(V600E); type: cell-based, mouse; settings: 24 h, western blot

## CCn1c(-c2cccnc2[C@H](C)OC)c2c3cc(ccc31)-c1csc(n1)C[C@H](NC(=O)[C@H](C(C)C)N(C)C(C)=O)C(=O)N1CCC[C@H](N1)C(=O)OCC(C)(C)C2 [Compound 2]
[1]
  Kd: 330 nM
[2]
  EC50: 31.6 nM
[3]
  EC50: > 10 µM
[4]
  EC50: 149 nM
[5]
  EC50: > 10 µM
[6]
  bioavailability: 0.4%

## CCn1c(-c2cccnc2[C@H](C)OC)c2c3cc(ccc31)-c1csc(n1)C[C@H](NC(=O)[C@H]1CCO1)C(=O)N1CCC[C@H](N1)C(=O)OCC(C)(C)C2 [Compound 3]
[1]
  Kd: 6270 nM
[2]
  EC50: 124 nM
[3]
  EC50: > 10 µM
[4]
  EC50: 615 nM
[5]
  EC50: > 10 µM
[6]
  bioavailability: 44%
[7]
  Kd: 818 nM

## CCn1c(-c2cc(N3CCN(C)CC3)cnc2[C@H](C)OC)c2c3cc(ccc31)-c1csc(n1)C[C@H](NC(=O)[C@H]1CCO1)C(=O)N1CCC[C@H](N1)C(=O)OCC(C)(C)C2 [Compound 4]
[1]
  Kd: 605 nM
[2]
  EC50: 1.94 nM
[3]
  EC50: > 10 µM
[4]
  EC50: 14.2 nM
[5]
  EC50: 6.95 µM
[7]
  Kd: 292 nM

## Cc1nc(N2CCC3(CC2)CO[C@@H](C)[C@H]3N)c(CO)nc1-c1cccc(Cl)c1Cl [RMC-4550]
[8]
  anti-tumour activity: only modest tumour growth inhibition

## O=C(Nc1ccc2[nH]nc(-c3ccncc3)c2c1)[C@@H]1CCN(CC(=O)N2CCN(c3ccc(-c4ncccn4)cc3)CC2)C1 [SCH772984]
[9]; MEK1E102-I103del, inhibitor 0.046 nM
  Proliferation of Pa16C cells expressing MEK1 mutant constructs: 102.4 and 93.7 and 111.1 and 109.2
[9]; MEK1E102-I103del, inhibitor 0.412 nM
  Proliferation of Pa16C cells expressing MEK1 mutant constructs: 88.7 and 97.2 and 116.5 and 112.2
[9]; MEK1E102-I103del, inhibitor 1.235 nM
  Proliferation of Pa16C cells expressing MEK1 mutant constructs: 62.5 and 77.2 and 97.3 and 86.7
[9]; MEK1K57N, inhibitor 0.046 nM
  Proliferation of Pa16C cells expressing MEK1 mutant constructs: 116 and 117.1 and 131.7 and 130.6
[9]; MEK1K57N, inhibitor 0.412 nM
  Proliferation of Pa16C cells expressing MEK1 mutant constructs: 139 and 146.7 and 118.9 and 144.8
[9]; MEK1K57N, inhibitor 1.235 nM
  Proliferation of Pa16C cells expressing MEK1 mutant constructs: 153.6 and 157.6 and 123.4 and 129.5
[9]; MEK1K57N, inhibitor 3.704 nM
  Proliferation of Pa16C cells expressing MEK1 mutant constructs: 116.2 and 140.9 and 100.4 and 107.4
[9]; MEK1K57N, inhibitor 11.111 nM
  Proliferation of Pa16C cells expressing MEK1 mutant constructs: 83.1 and 119.2 and 75.2 and 67
[9]; MEK1Q56P, inhibitor 0.046 nM
  Proliferation of Pa16C cells expressing MEK1 mutant constructs: 136.2 and 107 and 127.7 and 113.2
[9]; MEK1Q56P, inhibitor 0.412 nM
  Proliferation of Pa16C cells expressing MEK1 mutant constructs: 178.1 and 122.6 and 149.9 and 115.3
[9]; MEK1Q56P, inhibitor 1.235 nM
  Proliferation of Pa16C cells expressing MEK1 mutant constructs: 166.6 and 134 and 125.8 and 104.6
[9]; MEK1Q56P, inhibitor 3.704 nM
  Proliferation of Pa16C cells expressing MEK1 mutant constructs: 131.2 and 128.6 and 108.4 and 83.5
[9]; MEK1S218D/S222D, inhibitor 0.046 nM
  Proliferation of Pa16C cells expressing MEK1 mutant constructs: 105.3 and 97.5 and 108.4 and 102.6
[9]; MEK1S218D/S222D, inhibitor 0.412 nM
  Proliferation of Pa16C cells expressing MEK1 mutant constructs: 90.3 and 97.7 and 107.5 and 108.3
[9]; MEK1S218D/S222D, inhibitor 1.235 nM
  Proliferation of Pa16C cells expressing MEK1 mutant constructs: 59.2 and 93.4 and 100.5 and 90.2
[9]; MEK1WT, inhibitor 0.046 nM
  Proliferation of Pa16C cells expressing MEK1 mutant constructs: 113.6 and 107.4 and 114.6 and 111.6
[9]; MEK1WT, inhibitor 0.412 nM
  Proliferation of Pa16C cells expressing MEK1 mutant constructs: 127.4 and 95.8 and 106.8 and 108.8
[9]; MEK1WT, inhibitor 1.235 nM
  Proliferation of Pa16C cells expressing MEK1 mutant constructs: 95.9 and 89.3 and 90.3 and 82.4
[9]; MEK1WT, inhibitor 3.704 nM
  Proliferation of Pa16C cells expressing MEK1 mutant constructs: 49.4 and 66.6 and 61 and 49.7
[9]; MEK1WT, inhibitor 11.111 nM
  Proliferation of Pa16C cells expressing MEK1 mutant constructs: 29.9 and 38 and 33.3 and 24.2

## O=C(c1ccc(F)c(F)c1Nc1ccc(I)cc1F)N1CC(O)([C@@H]2CCCCN2)C1 [cobimetinib]
[8]
  anti-tumour activity: only modest tumour growth inhibition

## CC(=O)Nc1cccc(-n2c(=O)n(C3CC3)c(=O)c3c(Nc4ccc(I)cc4F)n(C)c(=O)c(C)c32)c1 [trametinib, reference compound]
[10]; AsPC-1 and NCI-H441, pERK and proliferation
  effect of disruption of the PPIA locus on sensitivity: did not affect sensitivity
[10]; Homo sapiens, ASPC1, AsPC-1, […], read-out: pERK inhibition in PPIA KO cells treated with trametinib
  activity at 16.9 pM: 106%
[10]; Homo sapiens, ASPC1, AsPC-1 PPIA KO, read-out: pERK inhibition in PPIA KO cells treated with trametinib
  activity at 0.00046 µM: 47%
[10]; Homo sapiens, ASPC1, AsPC-1 PPIA KO, 4.12 nM, read-out: Proliferation inhibition in PPIA KO cells treated with trametinib
  activity at 0.00412 µM: 25.5%
[10]; Homo sapiens, ASPC1, AsPC-1 PPIA KO, 37.00 nM, read-out: Proliferation inhibition in PPIA KO cells treated with trametinib
  activity at 0.037 µM: 9.16%
[10]; Homo sapiens, ASPC1, AsPC-1 PPIA KO, 333.00 nM, read-out: Proliferation inhibition in PPIA KO cells treated with trametinib
  activity at 0.333 µM: 4.83%
[10]; Homo sapiens, NCI-H441, NCI-H441, 0.05 nM, read-out: Proliferation inhibition in PPIA KO cells treated with trametinib
  activity at 50 pM: 120%
[10]; Homo sapiens, NCI-H441, NCI-H441, 4.12 nM, read-out: Proliferation inhibition in PPIA KO cells treated with trametinib
  activity at 0.00412 µM: 49.5%
[10]; Homo sapiens, NCI-H441, NCI-H441, 37.00 nM, read-out: Proliferation inhibition in PPIA KO cells treated with trametinib
  activity at 0.037 µM: 44.6%
[10]; Homo sapiens, NCI-H441, NCI-H441, 333.00 nM, read-out: Proliferation inhibition in PPIA KO cells treated with trametinib
  activity at 0.333 µM: 42.2%
[10]; Homo sapiens, NCI-H441, NCI-H441, 1000.00 nM, read-out: Proliferation inhibition in PPIA KO cells treated with trametinib
  activity at 1 µM: 35.6%
[10]; Homo sapiens, NCI-H441, NCI-H441 PPIA KO, read-out: pERK inhibition in PPIA KO cells treated with trametinib
  activity at 0.00046 µM: 59%
[10]; Homo sapiens, NCI-H441, NCI-H441 PPIA KO, 4.12 nM, read-out: Proliferation inhibition in PPIA KO cells treated with trametinib
  activity at 0.00412 µM: 47%
[10]; Homo sapiens, NCI-H441, NCI-H441 PPIA KO, 37.00 nM, read-out: Proliferation inhibition in PPIA KO cells treated with trametinib
  activity at 0.037 µM: 40.9%
[10]; Homo sapiens, NCI-H441, NCI-H441 PPIA KO, 333.00 nM, read-out: Proliferation inhibition in PPIA KO cells treated with trametinib
  activity at 0.333 µM: 37.7%
[10]; Homo sapiens, NCI-H441, NCI-H441 PPIA KO, 1000.00 nM, read-out: Proliferation inhibition in PPIA KO cells treated with trametinib
  activity at 1 µM: 28.5%
[11]
  pERK suppression in RAS-less MEFs: reduced pERK similarly in all cells
